Laboratory results: patent US20070197590A1, “SUBSTITUTED DIPIPERIDINE CCR2 ANTAGONISTS” (priority 2006, published 2007)

How the values were obtained:
[1] = biological target: T1, CCR2 (Homo sapiens, UniProt P41597); assay: MCP-1 Receptor Binding Assay in THP-1 Cells; conditions: for IC50: THP-1 cells, 0.5 nM 125I labeled MCP-1, 2 hours at 30° C., read-out: Inhibition of MCP-1 Binding IC50
T1 construct: host or cells: THP-1 cells
T1 sequence (P41597 1-360 isoform P41597-2): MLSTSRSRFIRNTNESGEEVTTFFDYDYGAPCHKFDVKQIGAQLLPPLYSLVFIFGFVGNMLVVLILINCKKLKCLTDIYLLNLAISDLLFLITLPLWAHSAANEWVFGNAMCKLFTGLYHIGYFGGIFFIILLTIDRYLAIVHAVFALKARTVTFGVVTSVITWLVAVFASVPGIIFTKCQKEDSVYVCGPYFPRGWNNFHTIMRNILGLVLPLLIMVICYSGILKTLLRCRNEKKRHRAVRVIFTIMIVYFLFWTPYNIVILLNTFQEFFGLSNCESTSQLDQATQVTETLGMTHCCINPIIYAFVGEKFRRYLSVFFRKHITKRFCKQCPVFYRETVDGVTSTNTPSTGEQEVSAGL
Method in brief: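 Whole THP-1 cells incubated 2 h at 30° C with 0.5 nM 125I-MCP-1 and varying compound concentrations; bound radioactivity harvested on filters and counted by scintillation. Nonspecific binding with 1 μM cold MCP-1; IC50 for inhibition of binding versus vehicle.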

[2] = system: MCP-1 induced calcium ion influx in THP-1 cells; assay: MCP-1 Induced Calcium Mobilization in THP-1 Cells; format: cell-based; conditions: Homo sapiens; for IC50: THP-1, THP-1 cells, 0.2 μM MCP-1, FLIPR, read-out: Inhibition of MCP-1 Induced Calcium Ion Influx IC50
Protocol: THP-1 cells were plated at a density of 8×10^5 cells/mL (100 μL/well) into poly-D lysine coated clear bottom, black 96 well plates. The cells were loaded with 5 μM fluo-3 for 45 minutes. The fluo-3 washed off and cells were incubated with varying concentrations of test compound for 15 minutes. The change in calcium ion concentration upon addition of 0.2 μM MCP-1 was determined using FLIPR and compared to vehicle.
Table 2 lists IC50 values for inhibition of MCP-1 induced influx of calcium ions.

[3] = system: MCP-1 induced chemotaxis of THP-1 cells; assay: MCP-1 Induced Chemotaxis in THP-1 Cells; format: cell-based; conditions: Homo sapiens, MCP-1 0.01 μg/mL, 3 hours at 37° C., read-out: Inhibition of MCP-1 Induced Chemotaxis IC50
Protocol: MCP-1 induced chemotaxis was run in a 24-well chemotaxis chamber. MCP-1 (0.01 μg/mL) was added to the lower chamber and 100 μL of THP-1 cells (1×10^7 cell/mL) was added to the top chamber. Varying concentrations of test compound were added to the top and bottom chambers. Cells were allowed to chemotax for 3 hours at 37° C. and 5% CO2. An aliquot of the cells that had migrated to the bottom chamber was taken and counted then compared to vehicle.
Table 3 lists IC50 values for inhibition of MCP-1 induced chemotaxis.

SMILES | IC50 [1] [nM] | IC50 [2] [nM] | IC50 [3] [nM] | inhibition at 25 µM ([1]; test concentration of 25 μM, given where an IC50 value was not obtained, read-out: Inhibition of MCP-1 Binding, percent inhibition) [%] | inhibition at 25 µM ([2]; THP-1, test concentration of 25 μM, given where an IC50 value was not obtained, read-out: Inhibition of MCP-1 Induced Calcium Ion Influx, percent inhibition) [%]
COc1ccc(C2CCN(CC(O)C3(O)CCN(C(=O)/C=C/c4ccc(Cl)c(Cl)c4)CC3)CC2)cc1 (centres unmarked) [Compound 1] | 250 | 70 | 90 | – | –
O=C(Nc1ccc(Cl)c(Cl)c1)N1CCC(C(O)CN2CCC(c3c[nH]c4ccccc34)CC2)CC1 (centres unmarked) [Compound 4, 4-{1-hydroxy-2-[4-(1H-indol-3-yl)-piperidin-1-yl]-ethyl}-piperidine-1-carboxylic acid (3,4-dichloro-phenyl)-amide] | 30 | 20 | 4 | – | –
O=C(Nc1cc(F)cc(F)c1)N1CCC(C(O)CN2CCC(c3c[nH]c4ccccc34)CC2)CC1 (centres unmarked) [Compound 5, 4-{1-hydroxy-2-[4-(1H-indol-3-yl)-piperidin-1-yl]-ethyl}-piperidine-1-carboxylic acid (3,5-difluoro-phenyl)-amide] | 160 | 80 | 120 | – | –
O=C(/C=C/c1ccc(Cl)c(Cl)c1)N1CCC(C(O)CN2CCC(c3c[nH]c4ccccc34)CC2)CC1 (centres unmarked) [Compound 6] | 40 | 7 | 20 | – | –
O=C(/C=C/c1cc(F)cc(F)c1)N1CCC(C(O)CN2CCC(c3c[nH]c4ccccc34)CC2)CC1 (centres unmarked) [Compound 7] | 30 | 7 | 30 | – | –
OC(CN1CCC(c2c[nH]c3ccccc23)CC1)C1CCN(C(=S)Nc2cccc(Br)c2)CC1 (centres unmarked) [Compound 9, 4-{1-hydroxy-2-[4-(1H-indol-3-yl)-piperidin-1-yl]-ethyl}-piperidine-1-carbothioic acid (3-bromo-phenyl)-amide] | 50 | 120 | 20 | – | –
N=C(NC(=O)c1cc(F)cc(F)c1)N1CCC(C(O)CN2CCC(c3c[nH]c4ccccc34)CC2)CC1 (centres unmarked) [Compound 10, 3,5-difluoro-N-[(4-{1-hydroxy-2-[4-(1H-indol-3-yl)-piperidin-1-yl]-ethyl}-piperidin-1-yl)-imino-methyl]-benzamide] | 150 | 400 | 270 | – | –
Cc1cccc(/C=C/C(=O)N2CCC(C(O)CN3CCC(c4c[nH]c5ccccc45)CC3)CC2)c1 (centres unmarked) [Compound 11] | 10 | 350 | 190 | – | –
COc1ccc(C2CCN(CC(O)C3CCN(C(=O)/C=C/c4cc(F)cc(F)c4)CC3)CC2)cc1 (centres unmarked) [Compound 12] | 20 | 650 | 7 | – | –
COc1ccc(C2CCN(CC(O)C3CCN(C(=O)/C=C/c4cc(F)c(F)c(F)c4)CC3)CC2)cc1 (centres unmarked) [Compound 13] | 10 | 240 | 60 | – | –
COc1ccc(C2CCN(CC(O)C3CCN(C(=O)/C=C/c4ccc(Cl)c(Cl)c4)CC3)CC2)cc1 (centres unmarked) [Compound 14] | 140 | 3 | 150 | – | –
COc1ccc(C2CCN(CC(O)C3CCN(C(=O)Nc4ccc(Cl)c(Cl)c4)CC3)CC2)cc1 (centres unmarked) [Compound 15, 4-{1-hydroxy-2-[4-(4-methoxy-phenyl)-piperidin-1-yl]-ethyl}-piperidine-1-carboxylic acid (3,4-dichloro-phenyl)-amide] | 30 | 110 | 20 | – | –
COc1ccc(C2CCN(CC(O)C3CCN(C(=S)Nc4cccc(Br)c4)CC3)CC2)cc1 (centres unmarked) [Compound 16, 4-{1-hydroxy-2-[4-(4-methoxy-phenyl)-piperidin-1-yl]-ethyl}-piperidine-1-carbothioic acid (3-bromo-phenyl)-amide] | 130 | 980 | 300 | – | –
CS(=O)(=O)Nc1ccc2[nH]cc(C3CCN(CC(=O)C4CCN(C(=O)C=Cc5cc(F)c(F)c(F)c5)CC4)CC3)c2c1 [Compound 18, N-{3-[1-(2-oxo-2-{1-[3-(3,4,5-trifluoro-phenyl)-acryloyl]-piperidin-4-yl}-ethyl)-piperidin-4-yl]-1H-indol-5-yl}-methanesulfonamide] | 680 | 1700 | 420 | – | –
Cc1cccc(/C=C/C(=O)N2CCC(C(O)CN3CCC(c4c[nH]c5ncccc45)CC3)CC2)c1 (centres unmarked) [Compound 19] | 130 | 30 | 190 | – | –
O=C(/C=C/c1cc(F)cc(F)c1)N1CCC(C(O)CN2CCC(c3c[nH]c4ncccc34)CC2)CC1 (centres unmarked) [Compound 20] | 50 | 230 | 20 | – | –
O=C(/C=C/c1cc(F)c(F)c(F)c1)N1CCC(C(O)CN2CCC(c3c[nH]c4ncccc34)CC2)CC1 (centres unmarked) [Compound 21] | 50 | 480 | 20 | – | –
O=C(/C=C/c1cccc(C(F)(F)F)c1)N1CCC(C(O)CN2CCC(c3c[nH]c4ncccc34)CC2)CC1 (centres unmarked) [Compound 22] | 190 | 30 | 360 | – | –
O=C(/C=C/c1ccc(Cl)c(Cl)c1)N1CCC(C(O)CN2CCC(c3c[nH]c4ncccc34)CC2)CC1 (centres unmarked) [Compound 23] | 20 | 7 | 20 | – | –
O=C(Nc1ccc(Cl)c(Cl)c1)N1CCC(C(O)CN2CCC(c3c[nH]c4ncccc34)CC2)CC1 (centres unmarked) [Compound 24, 4-{1-hydroxy-2-[4-(1H-pyrrolo[2,3-b]pyridin-3-yl)-piperidin-1-yl]-ethyl}-piperidine-1-carboxylic acid (3,4-dichloro-phenyl)-amide] | 70 | 120 | 70 | – | –
CSc1ccc(NC(=O)N2CCC(C(O)CN3CCC(c4c[nH]c5ncccc45)CC3)CC2)cc1 (centres unmarked) [Compound 25, 4-{1-hydroxy-2-[4-(1H-pyrrolo[2,3-b]pyridin-3-yl)-piperidin-1-yl]-ethyl}-piperidine-1-carboxylic acid (4-methylsulfanyl-phenyl)-amide] | 810 | 1500 | 640 | – | –
COc1ccc2[nH]cc(C3CCN(CC(O)C4CCN(C(=O)/C=C/c5cc(F)cc(F)c5)CC4)CC3)c2c1 (centres unmarked) [Compound 26] | 70 | 370 | 20 | – | –
CS(=O)(=O)Nc1ccc2[nH]cc(C3CCN(CC(O)C4CCN(C(=O)/C=C/c5cc(F)c(F)c(F)c5)CC4)CC3)c2c1 (centres unmarked) [Compound 27] | 10 | 8 | 10 | – | –
CS(=O)(=O)Nc1ccc2[nH]cc(C3CCN(CC(N)C4CCN(C(=O)C=Cc5cc(F)c(F)c(F)c5)CC4)CC3)c2c1 (centres unmarked) [Compound 28, N-{3-[1-(2-amino-2-{1-[3-(3,4,5-trifluoro-phenyl)-acryloyl]-piperidin-4-yl}-ethyl)-piperidin-4-yl]-1H-indol-5-yl}-methanesulfonamide] | 250 | 310 | 370 | – | –
COc1ccc(C2CCN(CC(O)C3CCN(C(=O)/C=C/c4cccc(C)c4)CC3)CC2)cc1 (centres unmarked) [Compound 29] | 70 | 90 | 70 | – | –
COc1ccc(C2CCN(CC(O)C3CCN(C(=O)/C=C/c4cccc(C(F)(F)F)c4)CC3)CC2)cc1 (centres unmarked) [Compound 30] | 50 | 220 | 60 | – | –
COc1ccc(C2CCN(CC(O)C3CCN(C(=O)/C=C/c4ccc(F)c(F)c4)CC3)CC2)cc1 (centres unmarked) [Compound 32] | 70 | 80 | 100 | – | –
O=C(/C=C/c1cc(F)cc(F)c1)N1CCC(C(O)CN2CCC(c3cc[nH]n3)CC2)CC1 (centres unmarked) [Compound 34] | 570 | 10900 | 840 | – | –
Cc1cccc(C=CC(=O)N2CCC(C(O)CN3CCC(c4c[nH]c5ccc(NS(C)(=O)=O)cc45)CC3)CC2)c1 (centres unmarked) [Compound 40, N-[3-(1-{2-hydroxy-2-[1-(3-m-tolyl-acryloyl)-piperidin-4-yl]-ethyl}-piperidin-4-yl)-1H-indol-5-yl]-methanesulfonamide] | 80 | 170 | 30 | – | –
CC(=O)Nc1ccc2[nH]cc(C3CCN(CC(O)C4CCN(C(=O)OCc5ccccc5)CC4)CC3)c2c1 (centres unmarked) [Compound 184, 4-{2-[4-(5-acetylamino-1H-indol-3-yl)-piperidin-1-yl]-1-hydroxy-ethyl}-piperidine-1-carboxylic acid benzyl ester] | – | – | – | 61 | 13
